According to patent US20220331269A1, “COMPOSITIONS FOR TREATING ACNE” (Botanix Pharmaceuticals Ltd., priority 2017, published 2022):

Tested on: inflammatory lesions in patient with acne
Assay: 2-(2-ethoxyethoxy)ethanol tested against an active ingredient (for example dapsone gel) in patients with acne
Type: in vivo, human
Source text: Without being bound to any theory, we believe that the mechanism for this action is the 2-(2-ethoxyethoxy)ethanol may fluidize the lipids on the skin, thereby retarding the formation of microcomedones. If 2-(2-ethoxyethoxy)ethanol keep lipids from “gluing together” the desquamated keratinocytes, the number of clogged follicles, and subsequently the number of inflammatory lesions, would potentially be reduced. 2-(2-ethoxyethoxy)ethanol in the compositions of the present invention provides a means for stopping the formation of acne at its source; lipids and desquamated keratinocytes clogging pores leading to inflammation and formation of comedones. The compositions of the present invention may be active in clearing acne if used as a routine cleanser.

## CCOCCOCCO [2-(2-ethoxyethoxy)ethanol]
  number of inflammatory lesions: appears to have activity to reduce the number of inflammatory lesions
